Reference: patent publication US8884023B2, “Pyrano [3,2-D][1,3]thiazole as glycosidase inhibitors” (priority 2011, dated 2014)
Read-outs that look alike come from different tables or passages of the source.

What was measured:
O-GlcNAcase = target: T1, O-GlcNAcase (UniProt Q8VIJ5); assay type: cell-based; details: cells expressing endogenous O-GlcNAcase (such as rat B35, rat PC-12, human SH-SY5Y), approximately 16 hours treatment; read-out: OGA cellular inhibition (EC50)
T1 sequence (Q8VIJ5 1-916): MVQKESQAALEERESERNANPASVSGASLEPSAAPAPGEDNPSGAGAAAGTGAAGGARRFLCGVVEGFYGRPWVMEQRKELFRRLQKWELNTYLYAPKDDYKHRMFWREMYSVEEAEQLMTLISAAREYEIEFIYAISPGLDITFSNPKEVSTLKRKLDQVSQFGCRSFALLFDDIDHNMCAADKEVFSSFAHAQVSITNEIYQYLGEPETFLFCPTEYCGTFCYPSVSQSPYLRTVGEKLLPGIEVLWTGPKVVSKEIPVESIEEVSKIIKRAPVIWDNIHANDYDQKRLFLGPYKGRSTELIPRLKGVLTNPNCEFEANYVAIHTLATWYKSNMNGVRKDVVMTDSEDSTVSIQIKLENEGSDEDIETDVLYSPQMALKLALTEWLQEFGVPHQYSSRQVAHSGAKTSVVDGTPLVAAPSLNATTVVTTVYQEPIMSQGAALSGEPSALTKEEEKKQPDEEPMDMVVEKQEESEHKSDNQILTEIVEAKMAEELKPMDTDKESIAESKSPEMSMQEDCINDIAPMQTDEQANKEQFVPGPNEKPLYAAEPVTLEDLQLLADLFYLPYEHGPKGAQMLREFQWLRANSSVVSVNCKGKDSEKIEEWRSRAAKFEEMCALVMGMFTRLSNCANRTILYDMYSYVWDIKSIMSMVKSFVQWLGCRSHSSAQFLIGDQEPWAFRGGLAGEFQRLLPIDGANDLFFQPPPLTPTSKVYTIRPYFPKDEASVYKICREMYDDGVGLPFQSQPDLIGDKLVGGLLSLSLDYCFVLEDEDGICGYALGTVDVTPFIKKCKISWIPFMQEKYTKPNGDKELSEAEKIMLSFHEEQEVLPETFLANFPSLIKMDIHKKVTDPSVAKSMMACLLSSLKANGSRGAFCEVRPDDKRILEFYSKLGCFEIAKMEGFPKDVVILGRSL
Description: Assay for the Determination of Cellular Activity for Compounds that Inhibit O-GlcNAcase Activity
Inhibition of O-GlcNAcase, which removes O-GlcNAc from cellular proteins, results in an increase in the level of O-GlcNAcylated proteins in cells. An increase in the O-GlcNAcylation of cellular proteins can be measured by an antibody, such as CTD110.6, that binds O-GlcNAcylated proteins. The amount of O-GlcNAcylated protein can be determined by the enzyme linked immunoabsorbant assay (ELISA) technique.
Cell lines, such as rat B35, rat PC-12 and human SH-SY5Y cells, expressing endogenous levels of O-GlcNAcase, could be utilized. Cells were plated in 96-well plates at a density of approximately 10,000 cells/well. Compounds to be tested were dissolved in DMSO as 10 mM stock solution, and then diluted first with DMSO and then culture media using the Bravo workstation. Cells were treated with diluted compounds for approximately 16 hours. […] To prepare a cell lysate, the media from compound treated cells were removed, and the cells were washed once with Dulbecco's phosphate buffered saline (DPBS) and then lysed for 30 minutes in 100 μl/well of ice cold RIPA buffer containing a protease inhibitor cocktail.
The ELISA portion of the assay was performed in EIA/RIA plates that were coated overnight at 4 C with 80 μl/well of cell lysate. The following day the wells were washed 6 times with 200 μl of wash buffer (0.05% Tween20 in DPBS). The wells were blocked with 200 μl blocking buffer (1% BSA, 0.05% Tween20 in DPBS) for 1 h at room temperature. Each well was then washed 6 times with 200 μl of wash buffer. The anti-O-GlcNAc antibody CTD110.6 (Covance, Princeton, N.J.) was added at 100 μl/well at a concentration of 10 μg/ml. The plates were incubated for 1 h at room temperature. The wells were then washed 6 times with 200 μl/well of wash buffer. To detect the amount of CTD110.6 bound to the cell lysate, alkaline phosphatase conjugated goat anti-mouse IgM (diluted 1:500 in blocking buffer) was added at 100 μl/well and incubated for 45 min at room temperature. Each well was then washed 6 times with 200 μl/well of wash buffer. PNPP tablets dissolved in diethanolamine substrate buffer and 100 μl/well were added as detection reagent.
The amount of O-GlcNAcylated protein, as detected by the ELISA assay, was plotted for each concentration of test compound using standard curve fitting algorithms for sigmoidal dose response curves. The values for a four parameter logistic curve fit of the data were determined, with the inflection point of the curve being the potency value for the test compound.

[1] = target: T2, His-Tagged hOGA (human O-GlcNAcase) (Homo sapiens, UniProt O60502); assay: biochemical
T2 sequence (O60502 1-916): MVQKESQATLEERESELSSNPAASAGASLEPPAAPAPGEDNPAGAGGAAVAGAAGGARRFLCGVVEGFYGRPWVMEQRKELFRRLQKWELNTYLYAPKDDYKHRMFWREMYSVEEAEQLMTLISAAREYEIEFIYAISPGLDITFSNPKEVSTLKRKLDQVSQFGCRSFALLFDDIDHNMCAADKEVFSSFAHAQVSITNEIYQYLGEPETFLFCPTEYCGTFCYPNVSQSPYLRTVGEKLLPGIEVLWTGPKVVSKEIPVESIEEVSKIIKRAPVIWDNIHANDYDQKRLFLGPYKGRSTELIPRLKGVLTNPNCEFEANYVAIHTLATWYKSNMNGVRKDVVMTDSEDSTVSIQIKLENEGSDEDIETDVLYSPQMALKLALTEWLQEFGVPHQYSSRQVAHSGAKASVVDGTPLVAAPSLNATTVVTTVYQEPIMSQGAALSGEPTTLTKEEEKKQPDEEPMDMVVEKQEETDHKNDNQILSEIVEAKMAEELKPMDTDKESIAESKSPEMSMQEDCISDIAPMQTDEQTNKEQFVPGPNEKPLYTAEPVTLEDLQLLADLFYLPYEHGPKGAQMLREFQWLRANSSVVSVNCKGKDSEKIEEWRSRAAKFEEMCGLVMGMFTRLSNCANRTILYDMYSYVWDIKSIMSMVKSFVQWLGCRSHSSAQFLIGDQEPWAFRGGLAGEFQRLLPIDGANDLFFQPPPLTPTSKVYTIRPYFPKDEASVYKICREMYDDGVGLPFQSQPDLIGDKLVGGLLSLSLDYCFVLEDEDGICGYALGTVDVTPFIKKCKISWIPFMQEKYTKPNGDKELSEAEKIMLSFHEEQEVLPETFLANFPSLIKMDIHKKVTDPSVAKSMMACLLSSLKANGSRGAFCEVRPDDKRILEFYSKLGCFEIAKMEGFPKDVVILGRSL

[2] = read-out: OGA enzyme inhibition (IC50)

| IC50 [1, 2] | Structure (SMILES) | EC50 (O-GlcNAcase) | IC50 [1] |
| --- | --- | --- | --- |
| 100 to 500 nM | CCNC1=N[C@@H]2[C@@H](O)[C@H](O)[C@@H](CN(C)C)O[C@@H]2S1 [compound no. 51, (3aR,5R,6S,7R,7aR)-5-[(dimethylamino)methyl]-2-(ethylamino)-5,6,7,7a-tetrahydro-3aH-pyrano[3,2-d][1,3]thiazole-6,7-diol] | 100 to 500 nM |  |
|  | CCNC1=N[C@@H]2[C@@H](O)[C@H](O)[C@@H](Cn3cc(Cn4nnc5ccccc54)nn3)O[C@@H]2S1 [compound no. 57, (3aR,5R,6S,7R,7aR)-5-{[4-(1H-1,2,3-benzotriazol-1-ylmethyl)-1H-1,2,3-triazol-1-yl]methyl}-2-(ethylamino)-5,6,7,7a-tetrahydro-3aH-pyrano[3,2-d][1,3]thiazole-6,7-diol] | > 1000 nM | < 100 nM |
| < 100 nM | CCNC1=N[C@@H]2[C@@H](O)[C@H](O)[C@@H](Cn3cc(COc4ccccc4)nn3)O[C@@H]2S1 [compound no. 58, (3aR,5R,6S,7R,7aR)-2-(ethylamino)-5-{[4-(phenoxymethyl)-1H-1,2,3-triazol-1-yl]methyl}-5,6,7,7a-tetrahydro-3aH-pyrano[3,2-d][1,3]thiazole-6,7-diol] | 500 to 1000 nM |  |
|  | CCNC1=N[C@@H]2[C@@H](O)[C@H](O)[C@@H](Cn3cc(C(C)(O)c4ccccc4)nn3)O[C@@H]2S1 (some centres unmarked) [compound no. 67, 2-Ethylamino-5-[4-(1-hydroxy-1-phenyl-ethyl)-[1,2,3]triazol-1-ylmethyl]-5,6,7,7a-tetrahydro-3aH-pyrano[3,2-d]thiazole-6,7-diol] | < 100 nM | < 100 nM |
